Tested on: yeast genes (level of expressed mRNA)
Assay: DNA chip analysis of expressed mRNA of yeast genes after 2 h culture with a toxic chemical substance
Type: cell-based, Saccharomyces cerevisiae S288C
Details: for The level of expressed mRNA in the presence of chemical substance/ (ratio to absence of chemical substance): stress protein genes, DNA chip
Protocol: Yeast (Saccharomyces cerevtisiae S288C (α SUC2mal mel gap2 CUP1)) were cultured at 25° C. on YPD medium (yeast extract 1%, polypepton 2%, glucose 2%). One of toxic chemical substances was added to the cell at logarithmic growth phase, and the cell was further cultured for two hours. Cell was cultured without any chemical substance in the same condition, and was used as control. Concentrations of the chemical substances were defined to inhibit the growth of the yeast but not lead to death.
After the completion of cultivation, the culture was centrifuged to collect the cells. To the cells, sodium acetate buffer (50 mM sodium acetate, 10 mM EDTA, 1% SDS) was added, and the mixture was shaken at 65° C. for five minutes, followed by returning to room temperature, and obtaining the supernatant, which procedure was repeated two times. To the supernatant, ½ amount of a solution of phenol/chloroform was added, and the mixture was centrifuged to give a supernatant, which was added with an equal amount of chloroform, and the mixture was centrifuged to give a supernatant. To the supernatant, an equal amount of isopropanol containing 0.3 M sodium acetate was added, and the mixture was allowed to stand at room temperature for 30 minutes, after which the mixture was centrifuged to give a sediment of the whole RNAs. Seventy % ethanol was added to the sediment, and the mixture was again centrifuged to give a sediment, which was then dried and dissolved in water. mRNA was isolated from the whole RNAs as followings. In view of the fact that a poly A chain is attached to the 3′ terminus of mRNA, a polynucleotide having a poly T structure which was immobilized on the surface of latex beads was used to trap the mRNA, and then the mRNA was washed and eluted with spine column (Oligotex-dT30<Super>mRNA Purification Kit, Takara). Reverse transcription of the mRNA was conducted with a reverse transcriptase (Super Script II Reverse Transcriptase; catalogue No. 18064-014, GibcoBRL) using fluorescence-labeled nucleotides to give cDNAs that were introduced with Cy3-dUTP or Cy5-dUTP during the reverse transcription.
The labeled cDNAs were dissolved in TE buffer (10 mM Tris-HCl/1 mM EDTA, pH8.0), and the solution was dropped on the DNA chip containing the whole genes of yeast (DNA Chip Research Inc. Japan) so that the cDNAs were hybridized on the DNA chip at 65° C. for over 12 hours. The fluoresces intensity of the DNA chip was read with a scanner, and the ratio relative to the fluorescence intensity resulting from the absence of chemical substance was estimated as the following, which is shown in Tables 1 to 9: [formula]
In the Tables, “Intensity” indicated in the rightmost column is a value of the level of expressed mRNA of each gene in control cells as divided by the average level of the expressions of the whole genes.

In the case of `CCCCC[C@H](O)CC(=O)CCc1ccc(O)c(OC)c1` [(13), gingerol], the “The level of expressed mRNA in the presence of chemical substance/The level of expressed mRNA in the absence of chemical substance” value (yeast gene YIL140W) is reported as 0.5, the “The level of expressed mRNA in the presence of chemical substance/ (in its absence), gene YJL070C” value (yeast gene YJL070C, ratio of DNA chip fluorescence intensity to that without chemical substance) is reported as 1.8 and the “The level of expressed mRNA in the presence of chemical substance/The level of expressed mRNA in the absence of chemical substance” value (yeast gene YJL073W) is reported as 1.6. The “The level of expressed mRNA in the presence of chemical substance/The level of expressed mRNA in the absence of chemical substance” value (yeast gene YJL089W) was 1.8, the “The level of expressed mRNA in the presence of chemical substance/ (ratio to absence), gene YJL096W” value (yeast gene YJL096W, mitochondria-located protein genes, 2 h culture with chemical) was 0.7 and the “The level of expressed mRNA in the presence of chemical substance/The level of expressed mRNA in the absence of chemical substance” value (yeast gene YJL116C) was 4.3. For the same compound, the “The level of expressed mRNA in the presence of chemical substance/ (ratio to absence of chemical substance)” value (yeast gene YJL158C) was 0.4, the “The level of expressed mRNA in the presence of chemical substance/ (in its absence), gene YJL167W” value (yeast gene YJL167W, ratio of DNA chip fluorescence intensity to that without chemical substance) was 0.9 and the “The level of expressed mRNA in the presence of chemical substance/ (ratio to absence), gene YJL180C” value (yeast gene YJL180C, mitochondria-located protein genes, 2 h culture with chemical) was 1.2. The “The level of expressed mRNA in the presence of chemical substance/ (in its absence), gene YJL216C” value (yeast gene YJL216C, ratio of DNA chip fluorescence intensity to that without chemical substance) was 1.1, the “The level of expressed mRNA in the presence of chemical substance/The level of expressed mRNA in the absence of chemical substance” value (yeast gene YJR004C) was 0.3 and the “The level of expressed mRNA in the presence of chemical substance/The level of expressed mRNA in the absence of chemical substance” value (yeast gene YJR086W) was 0.9. For the same compound, the “The level of expressed mRNA in the presence of chemical substance/ (ratio to absence of chemical substance)” value (yeast gene YJR090C) was 2.2, the “The level of expressed mRNA in the presence of chemical substance/The level of expressed mRNA in the absence of chemical substance” value (yeast gene YKL008C) was 1.7 and the “The level of expressed mRNA in the presence of chemical substance/The level of expressed mRNA in the absence of chemical substance” value (yeast gene YKL013C) was 1.3. The “The level of expressed mRNA in the presence of chemical substance/The level of expressed mRNA in the absence of chemical substance” value (yeast gene YKL039W) was 1.9, the “The level of expressed mRNA in the presence of chemical substance/The level of expressed mRNA in the absence of chemical substance” value (yeast gene YKL041W) was 1.3 and the “The level of expressed mRNA in the presence of chemical substance/The level of expressed mRNA in the absence of chemical substance” value (yeast gene YKL096W) was 0.1. The “The level of expressed mRNA in the presence of chemical substance/ (ratio to absence of chemical substance)” value (yeast gene YKL164C) was 0.9, the “The level of expressed mRNA in the presence of chemical substance/The level of expressed mRNA in the absence of chemical substance” value (yeast gene YKL165C) was 3.2 and the “The level of expressed mRNA in the presence of chemical substance/The level of expressed mRNA in the absence of chemical substance” value (yeast gene YKL193C) was 2.1. The “The level of expressed mRNA in the presence of chemical substance/ (in its absence), gene YKR009C” value (yeast gene YKR009C, ratio of DNA chip fluorescence intensity to that without chemical substance) was 1.8, the “The level of expressed mRNA in the presence of chemical substance/ (in its absence), gene YKR034W” value (yeast gene YKR034W, ratio of DNA chip fluorescence intensity to that without chemical substance) was 1.2 and the “The level of expressed mRNA in the presence of chemical substance/ (ratio to absence of chemical substance)” value (yeast gene YKR053C) was 0.7. For the same compound, the “The level of expressed mRNA in the presence of chemical substance/ in its absence, gene YKR058W” value (yeast gene YKR058W, energy system protein genes, 2 h culture with the chemical, ratio to control without chemical) was 0.7, the “The level of expressed mRNA in the presence of chemical substance/ (in its absence), gene YLR006C” value (yeast gene YLR006C, ratio of DNA chip fluorescence intensity to that without chemical substance) was 0.8 and the “The level of expressed mRNA in the presence of chemical substance/ (ratio to absence of chemical substance)” value (yeast gene YLR006C) was 0.8. The “The level of expressed mRNA in the presence of chemical substance/The level of expressed mRNA in the absence of chemical substance” value (yeast gene YLR120C) was 4.8, the “The level of expressed mRNA in the presence of chemical substance/The level of expressed mRNA in the absence of chemical substance” value (yeast gene YLR136C) was 2.9 and the “The level of expressed mRNA in the presence of chemical substance/The level of expressed mRNA in the absence of chemical substance” value (yeast gene YLR178C) was 7.5. The “The level of expressed mRNA in the presence of chemical substance/The level of expressed mRNA in the absence of chemical substance” value (yeast gene YLR250W) was 1.2, the “The level of expressed mRNA in the presence of chemical substance/ in its absence, gene YLR295C” value (yeast gene YLR295C, energy system protein genes, 2 h culture with the chemical, ratio to control without chemical) was 0.8 and the “The level of expressed mRNA in the presence of chemical substance/ (ratio to absence), gene YLR295C” value (yeast gene YLR295C, mitochondria-located protein genes, 2 h culture with chemical) was 0.8. The “The level of expressed mRNA in the presence of chemical substance/The level of expressed mRNA in the absence of chemical substance” value (yeast gene YLR327C) was 2.8, the “The level of expressed mRNA in the presence of chemical substance/ (in its absence), gene YLR351C” value (yeast gene YLR351C, ratio of DNA chip fluorescence intensity to that without chemical substance) was 0.9 and the “The level of expressed mRNA in the presence of chemical substance/The level of expressed mRNA in the absence of chemical substance” value (yeast gene YLR356W) was 2.5. The “The level of expressed mRNA in the presence of chemical substance/The level of expressed mRNA in the absence of chemical substance” value (yeast gene YLR362W) was 2.4, the “The level of expressed mRNA in the presence of chemical substance/ (in its absence), gene YLR375W” value (yeast gene YLR375W, ratio of DNA chip fluorescence intensity to that without chemical substance) was 1.6 and the “The level of expressed mRNA in the presence of chemical substance/The level of expressed mRNA in the absence of chemical substance” value (yeast gene YLR391W) was 0.9. The “The level of expressed mRNA in the presence of chemical substance/The level of expressed mRNA in the absence of chemical substance” value (yeast gene YLR429W) was 2.3, the “The level of expressed mRNA in the presence of chemical substance/ in its absence, gene YML129C” value (yeast gene YML129C, energy system protein genes, 2 h culture with the chemical, ratio to control without chemical) was 1.0 and the “The level of expressed mRNA in the presence of chemical substance/ (ratio to absence), gene YML129C” value (yeast gene YML129C, mitochondria-located protein genes, 2 h culture with chemical) was 1.0. The “The level of expressed mRNA in the presence of chemical substance/The level of expressed mRNA in the absence of chemical substance” value (yeast gene YMR004W) was 2.2, the “The level of expressed mRNA in the presence of chemical substance/ (ratio to absence), gene YMR023C” value (yeast gene YMR023C, mitochondria-located protein genes, 2 h culture with chemical) was 1.1 and the “The level of expressed mRNA in the presence of chemical substance/The level of expressed mRNA in the absence of chemical substance” value (yeast gene YMR094W) was 1.4. The “The level of expressed mRNA in the presence of chemical substance/The level of expressed mRNA in the absence of chemical substance” value (yeast gene YMR104C) was 1.5, the “The level of expressed mRNA in the presence of chemical substance/ (ratio to absence of chemical substance)” value (yeast gene YMR186W) was 2.4 and the “The level of expressed mRNA in the presence of chemical substance/The level of expressed mRNA in the absence of chemical substance” value (yeast gene YMR219W) was 2.1. The “The level of expressed mRNA in the presence of chemical substance/The level of expressed mRNA in the absence of chemical substance” value (yeast gene YMR226C) was 1.6, the “The level of expressed mRNA in the presence of chemical substance/ in its absence, gene YMR267W” value (yeast gene YMR267W, energy system protein genes, 2 h culture with the chemical, ratio to control without chemical) was 0.7 and the “The level of expressed mRNA in the presence of chemical substance/ (ratio to absence), gene YMR267W” value (yeast gene YMR267W, mitochondria-located protein genes, 2 h culture with chemical) was 0.7. The “The level of expressed mRNA in the presence of chemical substance/ in its absence, gene YMR267W” value (yeast gene YMR267W, ratio of DNA chip fluorescence intensity to that without chemical substance) was 0.7, the “The level of expressed mRNA in the presence of chemical substance/The level of expressed mRNA in the absence of chemical substance” value (yeast gene YMR275C) was 2.1 and the “The level of expressed mRNA in the presence of chemical substance/The level of expressed mRNA in the absence of chemical substance” value (yeast gene YMR276W) was 1.9. The “The level of expressed mRNA in the presence of chemical substance/ (in its absence), gene YMR278W” value (yeast gene YMR278W, ratio of DNA chip fluorescence intensity to that without chemical substance) was 2.5, the “The level of expressed mRNA in the presence of chemical substance/ (in its absence), gene YMR293C” value (yeast gene YMR293C, ratio of DNA chip fluorescence intensity to that without chemical substance) was 0.8 and the “The level of expressed mRNA in the presence of chemical substance/The level of expressed mRNA in the absence of chemical substance” value (yeast gene YMR314W) was 2.6.

Source: patent US20050112573A1, “Method of detecting toxic substance” (priority 2001, published 2005)
